Assay results published in ChEMBL document CHEMBL3352074, “Novel ROCK inhibitors for the treatment of pulmonary arterial hypertension” (Bioorg Med Chem Lett, 2014).

Tests used:
[1] = AUC (0 to 6 hrs) in mouse plasma at 1 mg/kg, iv; type: ADME, organism-based; parameters: time < 6 hr, dose 1 mg/kg, route intravenous
[2] = Plasma concentration in Balb/C mouse at 1 mg/kg, it after 0.5 hrs; type: ADME, organism-based; parameters: dose 1 mg/kg, route endotracheal; conditions: inhaled or intranasal
[3] = Drug concentration in Balb/C mouse lung at 1 mg/kg, it after 0.5 hrs; type: ADME, organism-based; parameters: dose 1 mg/kg, route endotracheal; conditions: inhaled or intranasal, read-out: Drug uptake
[4] = Plasma concentration in Balb/C mouse at 1 mg/kg, iv after 0.5 hrs; type: ADME, organism-based; parameters: dose 1 mg/kg, route intravenous
[5] = AUC (0 to 6 hrs) in mouse lung at 1 mg/kg, it; type: ADME, organism-based; parameters: time < 6 hr, dose 1 mg/kg, route endotracheal; conditions: inhaled or intranasal
[6] = Drug concentration in Balb/C mouse lung at 1 mg/kg, it after 3 hrs; type: ADME, organism-based; parameters: dose 1 mg/kg, route endotracheal; conditions: inhaled or intranasal, read-out: Drug uptake
[7] = AUC (0 to 6 hrs) in mouse plasma at 1 mg/kg, it; type: ADME, organism-based; parameters: time < 6 hr, dose 1 mg/kg, route endotracheal; conditions: inhaled or intranasal
[8] = Plasma concentration in Balb/C mouse at 1 mg/kg, iv after 3 hrs; type: ADME, organism-based; parameters: dose 1 mg/kg, route intravenous
[9] = Drug concentration in Balb/C mouse lung at 1 mg/kg, iv after 0.5 hrs; type: ADME, organism-based; parameters: dose 1 mg/kg, route intravenous; conditions: read-out: Drug uptake
[10] = Plasma concentration in Balb/C mouse at 1 mg/kg, it after 3 hrs; type: ADME, organism-based; parameters: dose 1 mg/kg, route endotracheal; conditions: inhaled or intranasal
[11] = Drug concentration in Balb/C mouse lung at 1 mg/kg, iv after 3 hrs; type: ADME, organism-based; parameters: dose 1 mg/kg, route intravenous; conditions: read-out: Drug uptake
[12] = AUC (0 to 6 hrs) in mouse lung at 1 mg/kg, iv; type: ADME, organism-based; parameters: time < 6 hr, dose 1 mg/kg, route intravenous
[13] = Apparent permeability from apical to basolateral side across human Caco2 cells; type: ADME, cell-based; conditions: Caco-2

With c1cc2c(N3CCNCC3)nc(-c3ccc4[nH]ncc4c3)nc2cn1 the AUC(0-t) at 6 h [1] was 0.372 µM·h, the concentration at 0.5 h [2] was 500 nM and the concentration at 0.5 h [3] was 32500 nM. For the same molecule, the concentration at 0.5 h [4] was 400 nM, the AUC(0-t) at 6 h [5] was 16 µM·h and the concentration at 3 h [6] was 1900 nM. For the same molecule, the AUC(0-t) at 6 h [7] was 0.302 µM·h, the concentration at 3 h [8] was 10 nM and the concentration at 0.5 h [9] was 2000 nM. It also gave a concentration at 3 h [10] of 20 nM, a concentration at 3 h [11] of 200 nM and an AUC(0-t) at 6 h [12] of 3.01 µM·h.

For c1ccc2c(N3CCNCC3)nc(-c3ccc4[nH]ncc4c3)nc2c1, the AUC(0-t) at 6 h [1] was 0.642 µM·h, the AUC(0-t) at 6 h [5] was 9.31 µM·h and the AUC(0-t) at 6 h [7] was 0.665 µM·h. It also gave a Papp A→B [13] of 5.65 ×10⁻⁶ cm/s and an AUC(0-t) at 6 h [12] of 5.92 µM·h.
